Data on 3 compounds can be found in patent publication US9687458B2, “Trans-clomiphene for use in cancer therapy” (REPROS THERAPEUTICS INC., priority 2012, dated 2017).

One assay addresses T1, human estrogen receptor (Homo sapiens, UniProt P03372).
T1 sequence (P03372 1-595): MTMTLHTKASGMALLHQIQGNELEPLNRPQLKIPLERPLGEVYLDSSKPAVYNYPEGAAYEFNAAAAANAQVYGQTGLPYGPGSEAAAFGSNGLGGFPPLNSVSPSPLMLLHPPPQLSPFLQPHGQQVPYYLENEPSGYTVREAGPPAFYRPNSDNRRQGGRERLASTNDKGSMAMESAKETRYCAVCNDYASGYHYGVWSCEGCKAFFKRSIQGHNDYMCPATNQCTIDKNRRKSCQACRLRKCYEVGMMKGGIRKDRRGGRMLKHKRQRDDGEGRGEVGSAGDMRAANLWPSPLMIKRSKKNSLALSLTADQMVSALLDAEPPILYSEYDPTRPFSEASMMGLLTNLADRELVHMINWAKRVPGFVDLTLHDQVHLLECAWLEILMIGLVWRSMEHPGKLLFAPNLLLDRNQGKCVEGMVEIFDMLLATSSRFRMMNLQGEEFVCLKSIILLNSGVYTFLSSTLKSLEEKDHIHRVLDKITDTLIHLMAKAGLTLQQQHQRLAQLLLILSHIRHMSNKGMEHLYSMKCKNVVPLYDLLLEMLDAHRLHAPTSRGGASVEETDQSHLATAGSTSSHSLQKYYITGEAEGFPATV
The conditions noted are these: Murdter et al., Hum. Mol. Genet. 21:1145 (2012); cited from earlier work.

The test system of assay [1] is serum (circulating) IGF-1. Put plainly: First clinical study: serum IGF-1 by immunoenzymometric assay, trans-clomiphene vs Testim over six months. The assay is classed as in vivo, human. Here is the method:
The effect of the isolated trans-clomiphene isomer on free serum IGF-1 was tested in three separate clinical studies.
Adult male subjects with a morning total testosterone blood level of <300 ng/dl and a serum LH of <15 IU/ml who had previously undergone between 6 months and two years of topical testosterone therapy were administered either trans-clomiphene (25 mg/day via oral capsule) or a topical testosterone gel (Testim®, 50 mg applied daily) over a six month period according to the first study. Following an initial screening visit (Visit 1-V1), topical testosterone replacement therapy in the subjects was discontinued for either three weeks or three months. At the end of the washout period (Visit 2-V2), quantitative determination of baseline serum (circulating) IGF-1 measurements were made in the subjects by immunoenzymometric assay (Immunodiagnostics Systems Ltd., OCTEIA® IGF-1 kit) and treatment with either trans-clomiphene or Testim® was initiated. Follow-up measurements were taken at 3 months post initial dose (Visit 4-V4), 6 months post initial dose (Visit 5-V5) and one month after cessation of treatment (Visit 6-V6). Seven subjects completed six months of trans-clomiphene therapy and five subjects completed six months of Testim® therapy. The results are presented at FIG. 1. At baseline (V2), serum IGF-1 levels in both patient groups averaged about 140 ng/ml. […] Thus, circulating serum IGF-1 levels were reduced over 40% in subjects administered trans-clomiphene whereas exogenous testosterone had no effect on circulating serum IGF-1. Importantly, aside from low testosterone, these subjects were otherwise healthy—thus, administering trans-clomiphene provides an effective method for reducing serum levels of IGF-1 produced by the liver (i.e. growth-hormone dependent IGF-1).

The test system of assay [2] is serum IGF-1. Put plainly: Second clinical study: serum IGF-1 after three months of trans-clomiphene or placebo. The assay is classed as in vivo, human. The conditions noted are these: for Mean Change from Baseline (st dev): P<0.0001 vs placebo; for mean reduction in serum IGF-1 levels: three months. On the procedure:
Another study measured serum IGF-1 levels in human males with low/low-normal testosterone following treatment with trans-clomiphene. Briefly 38 males were administered trans-clomiphene at 12.5 mg per day, 35 males were administered trans-clomiphene at 25 mg per day and 43 males were administered a placebo (control group). Serum IGF-1 levels were measured by immunoenzymometric assay as described above at baseline and following three months of treatment with trans-clomiphene or placebo for each treatment group.

The test system of assay [3] is corticotropin, prolactin or thyroid stimulating hormone. Kind of assay: Studies on the effects of enclomiphine on men: other hormones secreted by the pituitary. The format is in vivo, human. An excerpt:
The present invention provides methods for reducing IGF-1 levels in a subject in need of such treatment. […] Clomiphene is thought to exert its effects at the level of the hypothamus-pituitary axis by specifically stimulating secretion of the gonadotropic hormones LH and FSH. Neither of these gonadotropic hormones is known to play a general role in establishment or proliferation of cancer. Studies on the effects of enclomiphine on men found no changes in other hormones secreted by the pituitary such as corticotropin, prolactin or thyroid stimulating hormone. Growth hormone (GH), secreted by the pituitary is known to drive production of IGF-1 by the liver. Without wishing to be bound by theory it is believed that trans-clomiphene suppresses the pituitary production of GH thereby reducing the endocrine stimulated production of liver IGF-1. The activity of trans-clomiphene in reducing serum IGF-1 levels, renders the compositions useful for treating a variety of cancers having strong expression or overexpression of IGF-1 as a common underlying etiology.

Assay [4] concerns serum IGF-1. Put plainly: Third clinical study: IGF-1 after 6 weeks of trans-clomiphene compared to AndroGel. The format is in vivo, human.
Another assay relates to circulating IGF-1. The conditions noted are these: Campbell et al., J. Clin. Pathol: Mol Pathol. 54:307 (2001); cited from earlier work.

Take `CCN(CC)CCOc1ccc(C(=C(Cl)c2ccccc2)c2ccc(O)cc2)cc1` [4-hydroxy-trans-clomiphene]: the “ligand strength for the human estrogen receptor” value on human estrogen receptor is reported as “strong ligands”.
Regarding `CCN(CC)CCOc1ccc(/C(=C(/Cl)c2ccccc2)c2ccccc2)cc1` [trans-clomiphene], the “serum IGF-1 level at baseline (V2)” value in assay [1] (group average at end of washout, before treatment, hypogonadal adult males) is “about 140 ng/ml”. For the same compound, the “serum IGF-1 level after 3 months of treatment (V4)” value in assay [1] (trans-clomiphene 25 mg/day oral capsule, n=7) is recorded as “below 80 ng/ml”. Further, the “serum IGF-1 after 6 months of treatment (V5)” value in assay [1] (trans-clomiphene 25 mg/day oral or Testim 50 mg daily topical) is given as “remained depressed”. In addition, in assay [1] (trans-clomiphene 25 mg/day, vs baseline), the “reduction of circulating serum IGF-1” value was “over 40%”. The “Baseline IGF-1 (st dev)” value with serum IGF-1 [2] (12.5 mg per day group, n=38, before treatment) is listed as 115.2 (35.11) μg/L; in the assay on serum IGF-1 [2] (25 mg per day group, n=35, before treatment), 107.2 (39.4) μg/L. Besides, the “Mean Change from Baseline (st dev)” value in the assay with serum IGF-1 [2] (12.5 mg per day, n=38, month 3) is recorded as −36.8 (22.3) μg/L; in the assay with serum IGF-1 [2] (25 mg per day, n=35, month 3) it was −38.3 (29.5) μg/L. In addition, the “Month 3 IGF-1 (st dev)” value was 77.3 (30.8) μg/L in the assay with serum IGF-1 [2] (12.5 mg per day, n=38, three months of treatment) and 70.4 (38.6) μg/L with serum IGF-1 [2] (25 mg per day, n=35, three months of treatment). The “mean reduction in serum IGF-1 levels” value with serum IGF-1 [2] (12.5 mg per day) was ~32%; with serum IGF-1 [2] (25 mg per day) it was 36%. Further, the “changes in other hormones secreted by the pituitary (corticotropin, prolactin, thyroid stimulating hormone)” value in assay [3] was “no changes”. Also, the “IGF-1 - Naïve men” value with serum IGF-1 [4] (6.25 mg daily group, n=12, baseline) was found to be 101 ± 43 µg/L; in the assay with serum IGF-1 [4] (12.5 mg daily group, n=10, baseline) it was 94 ± 47 µg/L; in the assay with serum IGF-1 [4] (25 mg daily group, n=12, baseline), 96 ± 45 µg/L. Besides, the “IGF-1 - Treated men” value in the assay on serum IGF-1 [4] (6.25 mg daily, n=12, after 6 weeks, p = 0.008 compared to AndroGel (MWW)) was determined as 54 ± 30 µg/L; with serum IGF-1 [4] (12.5 mg daily, n=10, after 6 weeks, p = 0.0035 compared to AndroGel (MWW)), 50 ± 24 µg/L; in the assay with serum IGF-1 [4] (25 mg daily, n=12, after 6 weeks, p = 0.008 compared to AndroGel (MWW)) it was 62 ± 42 µg/L.
Regarding `CCC(=C(c1ccccc1)c1ccc(OCCN(C)C)cc1)c1ccccc1` [tamoxifen, 2-[4-(1,2-diphenylbut-1-enyl)phenoxy]-N,N-dimethyl-ethanamine], in the assay with circulating IGF-1, the “change to circulating IGF-1 levels after treatment” value is recorded as “no change”.
